Experiments:
[1] = not told; cited from earlier work
RNABabySpinach = assay: Fluorescence of H2O2-treated aptamer solutions; format: biochemical; settings: for rise of fluorescence intensity of ligand+RNABabySpinach+H2O2: H2O2 100 μM
Protocol: FIGS. 7A-7C depict H2O2 treatment of the aptamer systems. HBI and PBE-HBI (50 μM), RNA (1 μM RNABabySpinach), HEPES (pH 8, 50 mM), KCl (100 mM), MgCl2 (10 mM), H2O2 (100 μM). FIG. 7A depict the time-dependent change in fluorescence intensity upon H2O2 addition. FIG. 7B depicts normalized RFUs at 0, 5, and 60 min. FIG. 7C depicts RNABabySpinach stability against H2O2. TBE-urea PAGE lanes: 1. Native RNA; 2. [HBI+RNA]; 3. [HBI+RNA+H2O2]; 4. [PBE-HBI+RNA]; 5. [PBE-HBI+RNA+H2O2]. For imaging, the gel was stained with SYBR gold.
Next, the change in fluorescence for H2O2-treated aptamer solutions that contain HBI (positive control) and PBE-HBI (FIGS. 7A and 7B) was monitored. The RFU of PBE-HBI+RNABabySpinach was lower than that of HBI+RNABabySpinach by 14-fold at 0 min (no H2O2 present), validating that masking the phenolic oxygen of HBI inhibits RNA binding. Upon addition of H2O2 (100 μM), RFU of PBE-HBI+RNABabySpinach reached up to 92% of RFU of the control in 60 min. […] Upon H2O2 addition, the solution pH increased from 8.0 to 8.4 while ˜10% growth in fluorescence intensity was measured for the HBI-containing samples. This change is attributed to the pH-dependent increase in the phenolate form of HBI (see FIG. 5), which is known to have a higher extinction coefficient than its phenol form. […] To investigate the backbone stability of RNABabySpinach under these oxidative conditions, PAGE analyses of RNABabySpinach solutions containing HBI (FIG. 7C, lanes 2 and 3) and PBE-HBI (FIG. 7C, lanes 4 and 5) were carried out.
Remarkably, the kinetics of H2O2 detection, which involves conversion of PBE-HBI to HBI, followed by HBI-aptamer binding, is fast. The incubation time to achieve 1/2 RFUmax through this process is 6.8 (±0.5) min. Reliable detection of H2O2 is feasible in ˜1 min as the fluorescence intensity doubles. These findings are encouraging and serve as a standard for comparing the detection kinetics for other probes. […] In certain embodiments, reliable detection of elevated ALP may require longer incubations with the respective ABA system (FIG. 3G), as ALP has a relatively small margin of variation. The rates of biomarker detection can be modulated by substituting the HBI carbon framework of the probes (FIGS. 3A-3G) with electron donating (—OMe, —NMe2) or withdrawing (—F, —CF3) groups.

RNABabySpinach (51-nt) = assay: Experimental binding assay (fluorescence) with RNABabySpinach; settings: Fluorophore (2 μM), RNA (1 μM); for fluorescence intensity with RNABabySpinach: HEPES (pH 8, 20 mM), KCl (100 mM), MgCl2 (10 mM)
Excerpt: FIGS. 4A-4E depict the effect of chemical modifications of HBI on its binding interactions with RNA. FIG. 4A is a crystal structure of DFHBI-RNASpinach (PDB: 4TS2) focusing on the key H-bonding interactions of DFHBI within the G-G-A binding pocket of RNASpinach. […] FIG. 4C is a Pymol view of docked Oct-HBI-RNASpinach, showing that these interactions are disrupted. FIG. 4D is a Pymol view of a docked methyl carbonate-modified HBI-RNASpinach, showing that these interactions are disrupted. FIG. 4E depicts normalized RFUs of HBI and HBI+RNABabySpinach (gray bars) vs. Oct-HBI and Oct-HBI+RNABabySpinach (blue bars). Fluorophore (2 μM), RNA (1 μM), HEPES (pH 8, 20 mM), KCl (100 mM), and MgCl2 (10 mM).
Ligand docking is a useful tool to screen virtual library of molecules to predict binding affinity and conformation of a ligand within a binding pocket. To gain a theoretical insight into the effect of chemical modifications of HBI on its binding interactions with RNA, a robust docking method named Auto-Dock Vina was used (FIGS. 4A-4D). First, the validity of this method was tested by comparing the proposed HBI-RNASpinach docking (FIG. 4B) with the X-ray crystal structure of the native ligand-RNASpinach [FIG. 4A; the co-crystallized ligand in the reported study is 3,5-difluoro-HBI (DFHBI)]. To attain the initial HBI structure for docking, optimizations were performed in gas phase via density functional theory calculations using B3LYP, 6-31G basis set in Gaussian16 software. […] Next, the phenolic oxygen of HBI was replaced with alkyl carbonate groups.

[2] = free (unbound) ligand; cited from earlier work
BL21-DE3 cells = assay: Fluorescence imaging of H2S in E. coli expressing aptamer; format: cell-based; settings: upon introduction of H2S (1 mM)
Excerpt: FIGS. 9A-9D depict detection of H2S in E. coli utilizing AEC-MFHBI. FIG. 9A provides a schematic showing the detection of H2S in E. coli by fluorescence of MFHBI upon cleavage from AEC-MFHBI. FIGS. 9B-9D provide fluorescence images of E. coli expressing aptamer plasmid which have been administered MFHBI (FIG. 9B), AEC-MFHBI (FIG. 9C), and AEC-MFHBI in the presence of H2S (FIG. 9D). Dual channel: MFHBI+RNA (470/550 nm) and FM 4-64FX (510/640 nm). Scale bar: 10 μm.
Imaging of hydrogen sulfide (H2S) has been performed in an analogous manner to that which is described for the detection of H2O2. Specifically, BL21-DE3 cells are transformed with plasmid DNA that contains a T7 promoter and RNABabySpinach or a custom triple baby spinach construct, which allows for the expression of three baby spinach RNA aptamers per transcription cycle. These cells are inoculated with isopropyl β-D-1-thiogalactopyranoside (IPTG) to induce RNA transcription. Subsequent immobilization of the cells on glass dish coated with poly-L-lysine (PLL) and incubation with an imaging buffer (IB) containing the imaging agents and/or controls (i.e., MFHBI, FIG. 9B; or AEC-MFHBI, FIGS. 9C-9D), allowed real time fluorescence imaging of SH2 in cellulo.

[3] = tested on: E. coli competent cells (e.g., BL21-DE3); assay: Fluorescence imaging of H2O2 in E. coli expressing aptamer; format: cell-based; settings: for fluorescence in E. coli expressing aptamer: imaging buffer with H2O2 (100 μM)
Excerpt: FIGS. 8A-8D depict detection of H2O2 in E. coli utilizing PBAB-MFHBI. FIG. 8A provides a schematic showing the detection of H2O2 in E. coli by fluorescence of MFHBI upon cleavage from PBAB-MFHBI. FIGS. 8B-8D provide fluorescence images of E. coli expressing aptamer plasmid which have been administered MFHBI (FIG. 8B), PBA-MFHBI (FIG. 8C), and PBA-MFHBI in the presence of H2O2 (FIG. 8D). Dual channel: MFHBI+RNA (470/550 nm) and FM 4-64FX (510/640 nm). Scale bar: 10 μm.
For histochemical detection of oxidative stress in living cells, the focus is first on E. coli competent cells (e.g., BL21-DE3) (FIGS. 8A-8D). For the imaging of H2O2, BL21-DE3 cells are transformed with plasmid DNA that contains a T7 promoter and RNABabySpinach or a custom triple baby spinach construct, which allows for the expression of three baby spinach RNA aptamers per transcription cycle. These cells are inoculated with isopropyl β-D-1-thiogalactopyranoside (IPTG) to induce RNA transcription. […] The results can guide additional studies with more complex and biologically relevant cell lines, in particular, any primary or established mammalian cells (e.g., HEK293, HeLa, and HUVEC, inter alia). Detection of endogenous H2O2 generation can also be studied by using molecular stimulants known to trigger mitochondrial ROS production, such as Phorbol 12-myristate 13-acetate (PMA).

Compound: 4-hydroxy-benzylidene imidazolinone [HBI, reference compound]
- cell permeability [1]: cell permeable
- growth in fluorescence intensity upon H2O2 addition (RNABabySpinach; H2O2 addition, solution pH increased from 8.0 to 8.4): ~10%
- fluorescence intensity with RNABabySpinach (RNABabySpinach (51-nt)): 846 RFU
- fluorescence quantum yield Φf [2]: ~0.0001

Compound: CC1=N/C(=C\c2ccc(OC(=O)OCCN=[N+]=[N-])c(F)c2)C(=O)N1C [AEC-MFHBI]
- fluorescence in E. coli expressing aptamer (BL21-DE3 cells): rapid increase in fluorescence is observed within one hour

Compound: CCCCCCCCOC(=O)Oc1ccc(/C=C2\N=C(C)N(C)C2=O)cc1 [Oct-HBI]
- fluorescence intensity with RNABabySpinach (RNABabySpinach (51-nt)): 21 RFU
- decrease in fluorescence intensity compared to HBI-RNABabySpinach (RNABabySpinach (51-nt); HEPES pH 8): ~40 times

Compound: CC1=N/C(=C\c2ccc(OCc3ccc(B(O)O)cc3)c(F)c2)C(=O)N1C [PBAB-MFHBI]
- fluorescence in E. coli expressing aptamer, control sample ([3]; exogenous H2O2 absent (FIG. 8C)): very small increase in fluorescence
- fluorescence in E. coli expressing aptamer [3]: rapid increase in fluorescence within one hour

Compound: CC1=N/C(=C\c2ccc(OCc3ccc(B4OC(C)(C)C(C)(C)O4)cc3)cc2)C(=O)N1C [PBE-HBI]
- RFU lower than that of HBI+RNABabySpinach (RNABabySpinach; 0 min (no H2O2 present), 50 μM ligand, 1 μM RNA, HEPES pH 8): 14 fold
- RFU as % of RFU of the control (HBI+RNABabySpinach) (RNABabySpinach; H2O2 (100 μM), in 60 min): up to 92%
- time for reliable detection of H2O2 (fluorescence intensity doubles) (RNABabySpinach; H2O2 detection): ~1 min
- incubation time to achieve 1/2 RFUmax (RNABabySpinach; H2O2 detection: conversion to HBI followed by HBI-aptamer binding): 6.8 (±0.5) min
- rise of fluorescence intensity of ligand+RNABabySpinach+H2O2 (RNABabySpinach; after 60 min): ~8 fold
- rise of fluorescence intensity of ligand+RNABabySpinach+H2O2 (RNABabySpinach; at 5 min): ~4 fold
- fluorescence in E. coli expressing aptamer [3]: rapid increase in fluorescence within one hour

From US20230121031A1, “MASKED FLUOROGENIC COMPOUNDS AND METHODS OF USING THE SAME” (Rutgers, The State University of New Jersey, priority 2021, published 2023)
